The structures appear in SMILES notation.

Melting point data for 91 compounds are collected here from a melting point compilation (Tetko et al.; mined from patent text by program, amines drawn as free bases though some values may be those of a salt).

In general, melting point refers to the temperature of the solid-liquid transition. The compound `Cn1c(=O)c2c(Br)cccc2n2cnc(-c3noc(C4CC4)n3)c12` returned a melting point of 207 °C.

The compound `O=C(Cc1ccc(F)cc1)Nc1ccc(-n2nc(C(F)(F)F)cc2C2CC2)cc1` had a melting point of 135 to 140 °C.

Take `O=C1CCC(=NNc2ccc(F)cc2)c2ncccc2N1`: the melting point is 232 to 233 °C.

`CCCCCC(O)CCCC(CCCCCCC(=O)O)S(C)(=O)=O` (stereo unspecified) came in with a melting point of 47 to 48 °C.

Consider `COc1cc2c(cc1C(F)(F)F)N(C(=O)Nc1ccccc1CCN(C)C)CC2`, for which the melting point lay within 166 to 168 °C.

In turn, `O=C(O)c1ccccc1Nc1ccc(CCCCc2ccc(Cl)c(Cl)c2)cc1` gave a melting point of 98 to 105 °C.

Regarding `Fc1ccc2c(c1)C(c1ccccc1F)=NCCN2C1=NCCO1`, the melting point lay within 180 to 181 °C.

With `Cn1nc(-c2ccccc2)c2cccc(NS(C)(=O)=O)c2c1=O`, the melting point was 217 to 218 °C.

In turn, `CN1CCN(c2cc(Cl)cc3c2c(=O)n(Cc2ccc(F)cc2)c(=O)n3Cc2ccccc2)CC1` gave a melting point of 110 to 114 °C.

Turning to `Cc1c[nH]c(Cc2ccccc2NC(=O)N2CCN(C)CC2)n1`, the melting point lay in the range of 177 to 179 °C.

The compound `CCCCc1c(CO)ccc2ccc(OC)cc12` yielded a melting point of 52 to 53 °C.

Consider `C#CCn1c(=O)n(C)c(=O)c2c1nc(Cl)n2Cc1ccccc1`, for which the melting point is 169 to 172 °C.

In turn, `OCCN1CCC(Cc2ccccc2)CC1` displayed a melting point of 62 to 64 °C.

The compound `CCOC(=O)C=Cc1cc(Cl)cc(Cl)c1` registered a melting point of 71 to 73 °C.

Consider `O=Cc1cc2cc(F)c(F)cc2nc1Cl`, for which the melting point fell in the range of 226 to 229 °C.

`COc1nc(CO)c(CO)n1C` registered a melting point of 110 to 119 °C.

The compound `CC(=O)n1c(=O)oc2c3ncccc3ccc21` showed a melting point of 192 to 193 °C.

For the compound `N#CC(C#N)=C1C=C(c2ccsc2)S(=O)(=O)C(c2ccsc2)=C1`, the melting point was 275 to 285 °C.

`CC1CCN(c2c(C#N)c3c(c4c2Cc2ccccc2-4)-c2ccccc2C3)CC1`: the melting point was in the range of 166 to 168 °C.

On to `O=C1CCN(c2ccc(S(=O)(=O)NCc3ccccc3)cc2)CC1`, for which the melting point was 136 to 140 °C.

In turn, `C=CCOc1nc(Cl)nc2nc[nH]c12` showed a melting point of 208 to 209 °C.

As for `CCOC(=O)CNC(=O)c1csc(NC(=N)N)n1`, the melting point was 190 °C.

Consider `COC(=O)c1ccc(OCCNC(=O)C2Cc3ccccc3N2S(=O)(=O)c2ccc(-c3cc(C(F)(F)F)ccc3Cl)cc2)cc1Cl` (stereo unspecified), for which the melting point lay within 70 to 76 °C.

Regarding `COc1cc(C)c2c(c1OC)CCCC2=O`, the melting point was 58 to 62 °C.

`O=c1c2ccccc2nc(-c2cc(-c3ccccc3)c(N3CCOCC3)s2)n1-c1ccccc1` had a melting point of 218 to 220 °C.

Consider `COc1cc(NC(=O)N(c2ccc(N(C)C)cc2)C2CCCCCC2)c(OC(=O)[C@H](C)NC(=O)OCc2ccccc2)c(C(C)(C)C)c1`, for which the melting point stood at 126 °C.

Consider `O=C(O)CCCc1cc2nc(C(F)(F)F)ccc2n1S(=O)(=O)c1ccccc1`, for which the melting point amounted to 168 °C.

Regarding `C1=C(c2cccc3[nH]ccc23)CN(CCc2ccccc2)CC1`, the melting point was found to be 205 °C.

The compound `CC(=O)OC1CSC(Sc2ccc(C(=O)C(F)(F)F)cc2)C(OC(C)=O)C1OC(C)=O` (stereo unspecified) yielded a melting point of 143 to 148 °C.

`CCOC(=O)C=C(C)C=CC=C(C)C=Cc1c(Cl)cc(OC)c(Cl)c1Cl` gave a melting point of 126 to 128 °C.

For the compound `O=C1c2ccccc2C(c2ccc(O)cc2)(c2ccc(O)cc2)c2ccccc21`, the melting point fell in the range of 320 to 322 °C.

As to `Cc1cccc(/C=C/c2nc(COc3ccc(CCCCc4c[nH]c(CC(O)CO)n4)cc3)co2)c1` (stereo unspecified), the melting point was in the range of 102 to 104 °C.

On to `N#CCc1cccc(-c2ccc(OCCCC(=O)NO)cc2)c1`, for which the melting point is 140 to 144 °C.

The compound `CC1CCC(C(C)C)C(OC(=O)c2ccc(N)cc2O)C1` (stereo unspecified) displayed a melting point of 187 to 189 °C.

`CC1(C)CC(OC(=O)CCC(=O)OC2CC(C)(C)N(OC3CCCCC3)C(C)(C)C2)CC(C)(C)N1OC1CCCCC1` returned a melting point of 122 to 126 °C.

With `COC(=O)c1cccc(S(N)(=O)=O)c1I`, the melting point lay within 155 to 157 °C.

With `CCCS(=O)(=O)c1ccc(NS(=O)(=O)c2cccs2)c2[nH]c(C3=NCCS3)cc12`, the melting point fell in the range of 101 to 102 °C.

As to `Cc1cc2c(c(C)c1NC(=O)OC(C)(C)C)C(=O)C(C)(C)O2`, the melting point is 156 to 157 °C.

For the compound `CCOC(=O)c1cccnc1N`, the melting point was 90.5 to 92.5 °C.

In turn, `O=[N+]([O-])c1cnc2cc3c(cc2c1-c1ccccc1Cl)CCC3` had a melting point of 175 to 176 °C.

`COc1ccc(N2C(=O)C(OC(C)=O)C2c2ccccc2Cl)cc1` (stereo unspecified) yielded a melting point of 130 to 132 °C.

Regarding `COC(=O)Cn1c(CCc2ccccc2)ccc(NC(=O)OCc2ccccc2)c1=O`, the melting point is 102 to 104 °C.

As for `CCOC(=O)c1cc2cc(C(F)(F)F)cnc2n1Cc1ccccc1`, the melting point lay within 72 to 73 °C.

In the case of `COc1cc(Nc2c(C#N)cnc3cc(-c4csc(CN5CCN(C)CC5)c4)sc23)c(Cl)cc1Cl`, the melting point lay in the range of 224 to 226 °C.

Compound `CN1C(c2ccccc2)CC(=O)CC1c1ccccc1` (stereo unspecified) gave a melting point of 147 to 149 °C.

The compound `CCCN(CCC)c1c([N+](=O)[O-])cc(S(=O)(=O)N(C)SC)cc1[N+](=O)[O-]` showed a melting point of 119 to 121 °C.

Consider `Cn1nc2ccccc2c1S(N)(=O)=O`, for which the melting point is 181 to 183 °C.

Consider `Nc1ncc(Sc2ccc(C(F)(F)F)cn2)s1`, for which the melting point was in the range of 135 to 138 °C.

Take `Cc1nc2ccccn2c(=O)c1CCN1CCC(c2noc3cc(F)ccc23)CC1`: the melting point was 170 °C.

For `CS(=O)(=O)c1ccccc1[N+](=O)[O-]`, the melting point was in the range of 102 to 104 °C.

The compound `C[Si](C)(C)C1(COC(=O)Nc2ccccc2)c2ccccc2-c2ccccc21` showed a melting point of 94 to 96 °C.

Turning to `N#CC(Nc1ccccc1C(=O)C1CC1)c1c(Cl)cccc1Cl` (stereo unspecified), the melting point turned out to be 144 °C.

Turning to `C=CCNC(=O)CCNc1nc(NCC=C)nc2c(C)csc12`, the melting point is 95 to 96 °C.

For `Cc1cc(=O)[nH]c(NC(=N)Nc2ccccc2)n1`, the melting point was 265 °C.

With `CSc1ncc2c(Cl)cc(I)n2n1`, the melting point is 216 to 220 °C.

The compound `c1c[nH]c(-c2cnco2)c1` yielded a melting point of 57 to 58 °C.

In turn, `Cc1ccc(C(=O)O)c(-c2ccc(Cl)c(C(=O)NCC34CC5CC(CC(C5)C3)C4)c2)n1` came in with a melting point of 209 to 211 °C.

As for `O=C(c1cncc(Br)c1)N1CCC(=C2c3ccc(Cl)cc3CCc3cccnc32)CC1`, the melting point fell in the range of 87.5 to 96.4 °C.

The compound `O=Cc1cc(Cl)c2c(c1)CCCO2` showed a melting point of 51 °C.

`Cc1cc(Nc2ccccc2C(=O)O)n(C)n1`: the melting point lay within 210 to 211 °C.

For `CC(CC(=O)O)CC(=O)NCCc1ccccc1` (stereo unspecified), the melting point lay within 78 to 80 °C.

The compound `C[C@]1(Cn2ccnc2)[C@H](C(=O)O)N2C(=O)C[C@H]2S1(=O)=O` registered a melting point of 161 °C.

The compound `CC1(C)C=CC=CC1NCC1=NCCN1` (stereo unspecified) showed a melting point of 80 to 82 °C.

`CCOc1ccc(C2CCC3c4ccc(OCC)c(F)c4OC3C2)c(F)c1F` (stereo unspecified) came in with a melting point of 126 °C.

For the compound `[N-]=[N+]=NC[C@H]1CN(c2ccc(Br)cn2)C(=O)O1`, the melting point lay in the range of 64 to 67 °C.

Compound `CC(C)c1cc(-c2cc(C(=O)O)ccc2S(C)(=O)=O)on1` showed a melting point of 176 to 178 °C.

`COc1ccccc1-c1nc(-c2cccnc2)c(C)[nH]1` showed a melting point of 198 to 200 °C.

Take `CCCC1=C(C#N)C(c2ccccc2Cl)c2cn(C(=O)Nc3ccccc3)nc2N1` (stereo unspecified): the melting point was in the range of 167 to 171 °C.

`COc1cc2cc(C3=NNC(=O)CC3)sc2cc1OC`: the melting point fell in the range of 254 to 256 °C.

`CC1(C)OC(CS(=O)(=O)c2ccc(Cl)cc2)=CC1=O`: the melting point is 112 to 113 °C.

`O=[N+]([O-])c1ccc(Cl)cc1NC12CC3CC(CC(C3)C1)C2` registered a melting point of 146 °C.

Compound `O=C(OC1CCCCC1)c1ncn2c1[C@@H]1CCN1C(=O)c1cc(F)ccc1-2` came in with a melting point of 231 to 232 °C.

Consider `CCN(CC)C(=O)C(C)c1cc(-c2ccccc2)nc2ccccc12` (stereo unspecified), for which the melting point was 132 °C.

In turn, `N#Cc1ccc2[nH]c(-c3ccc(Cl)c(Cl)c3)c(CCCC(=O)O)c2c1` showed a melting point of 190 to 195 °C.

In turn, `CC(C)(Cl)C(=O)c1ccc(C(Br)c2ccc(C(=O)C(C)(C)Cl)cc2)cc1` came in with a melting point of 93 °C.

`O=C(O)Cc1ccc(Cn2cc(C(=O)C(=O)NC3=CC(=O)OC3)c3ccccc32)cc1`: the melting point is above 270 °C.

With `CN(C)c1cccc2c(S(=O)(=O)NCC(=O)N3CCCC3C(=O)NC(C=O)CCCN(C(=N)N)C(=O)OCc3ccccc3)cccc12` (stereo unspecified), the melting point lay within 105 to 115 °C.

In turn, `O=C(O)c1c[nH]cc2c(=O)n(-c3ccccc3)nc1-2` came in with a melting point of 287 to 302 °C.

The compound `CN(C)c1nn(C(=O)Cl)c(=O)n1C` registered a melting point of 78 to 80 °C.

`O=S(=O)(CCO)Nc1cc(C(c2cc(F)ccc2F)S(=O)(=O)c2ccc(Cl)cc2)c(Cl)cn1` (stereo unspecified) displayed a melting point of 155 to 158 °C.

`COc1nc(SCc2ccccc2)ncc1Br` had a melting point of 48 to 49 °C.

With `O=C1C2CCCC2=Nc2ccccc2N1Cc1ccc2ccccc2c1` (stereo unspecified), the melting point is 164 to 167 °C.

`CC(C)c1ccc(NC=CS(=O)(=O)F)cc1` had a melting point of 41 to 43 °C.

On to `Cc1ccc2c(c1)C(O)(c1ccccc1Cl)C(=O)N2` (stereo unspecified), for which the melting point fell in the range of 295 to 300 °C.

`CC(C)(C)C(=O)NCCC(=O)NC1CCCCC1Nc1cccc2c1C(=O)c1ccccc1C2=O` (stereo unspecified) registered a melting point of 168 °C.

The compound `CC(O)c1cc(I)cc(S(N)(=O)=O)c1` (stereo unspecified) displayed a melting point of 184 to 187 °C.

In turn, `Cc1cc(-n2ccnc2)c2cccc(OCc3c(Cl)ccc(S(=O)(=O)N4CCC[C@H]4C(=O)NCCCNC(=O)c4ccc(C=NN)cc4)c3Cl)c2n1` displayed a melting point of 148 °C.

Compound `Cn1c(-c2ccccc2)c2ccsc2nc1=O` displayed a melting point of 175 to 181 °C.

For the compound `O=C(O)CSc1c(C(=O)O)[nH]c2cc(Cl)cc(Cl)c12`, the melting point was 152 to 153 °C.

With `O=C(O)CCCCC1SCc2[nH]c(=O)[nH]c21` (single isomer, unassigned; (-)), the melting point lay in the range of 189 to 199 °C.

Regarding `COC(=O)CNc1cccc(Br)c1`, the melting point is 66 to 68 °C.
